Article PMC5665883, “Antithrombotic properties of JJ1, a potent and novel thrombin inhibitor” (Scientific Reports, 2017)

Tests used:
Factor Xa = target: T1, Factor Xa (Homo sapiens, UniProt P00742); assay: Chromogenic substrate assay, Ki (Dixon); assay type: biochemical
T1 construct: thrombin versus trypsin, factor Xa, elastase, plasmin, protein Ca, streptokinase, tPA, and urokinase; purchased Haematologic Technologies (Essex Junction, VT)

human platelets = assay: In vitro thrombin-induced platelet aggregation; assay type: cell-based; details: washed human platelets
Description: The in vitro platelet aggregation study was performed according to a previously reported method[59],[62]. Washed human platelets were incubated with the indicated concentration of JJ1 in DMSO for 1, 3, 5, or 10 min and subsequently stimulated by thrombin in 0.9% saline solution at 37 °C for 5 min. Platelet aggregation was recorded using an aggregometer (Chronolog, Havertown, PA, USA). For the ex vivo aggregation assay, male mice were fasted overnight and the indicated concentration of JJ1 in DMSO was administered by i.v. injection. After 24 h, PRP (10^9 platelets/mL) in a total volume of 240 μL was incubated at 37 °C for 1.5 min in the aggregometer with continuous stirring at 1000 rpm and subsequently stimulated with thrombin. Platelet aggregation was recorded as described above.

[1] = Pharmacokinetics after i.v. injection; assay type: in vivo; details: mouse, plasma, iv, male C57BL/6 mice, 2 mg/kg, fasting
Description: The penile veins of male C57BL/6 mice were injected with 2 mg/kg JJ1. Approximately 50 μL of blood was obtained from the tail vein immediately before and at 5, 15, 30, 60, and 180 min after injection; 80 μL acetonitrile and internal standard solution (reserpine) were then added to these samples, and plasma samples (10 μL) were prepared by centrifugation of the blood at 13,000 rpm for 15 min at 4 °C. An aliquot (2 μL) of the supernatant was then injected into an HPLC column. The pharmacokinetic parameters were determined using the standard non-compartmental method. The area under the curve for serum was calculated using the log linear trapezoidal method on WinNonlin (version 2.0; Scientific Consulting, KY, USA). The samples were analyzed using an Accela^TM LC system coupled to a TSQ Vantage triple quadrupole mass spectrometer (Thermo Fisher Scientific Inc., USA) equipped with a HESI-II Spray source. For the LC analysis, an ACE® 5C18, 3 μm (2.1 × 50 mm) column was used. The mobile phases were (A) LC-grade® water containing 0.1% formic acid, and (B) LC grade acetonitrile containing 0.1% formic acid (B). This initial composition was increased to 95% solvent (B) for 3 minutes. The gradient program for HPLC used a flow rate of […]. […]

Protein Ca = target: T2, Protein Ca (Homo sapiens, UniProt P04070); assay: Chromogenic substrate assay, Ki (Dixon); assay type: biochemical
T2 construct: thrombin versus trypsin, factor Xa, elastase, plasmin, protein Ca, streptokinase, tPA, and urokinase

clot-bound thrombin = target: T3, clot-bound thrombin (Homo sapiens, UniProt P00734); assay: Clot-bound thrombin assay, FPA generation (ELISA); assay type: biochemical; details: 60 min of incubation, FPA by ELISA; read-out: IC50, inhibition of FPA generation by clot-bound thrombin
T3 construct: Fibrin clots were formed by recalcification of citrated plasma and washed extensively; from tissue; host or cells: fibrin clots from recalcified citrated plasma
Description: Fibrin clots were formed by recalcification of citrated plasma and washed extensively to remove any FPA trapped within the clots. Plasma was then placed over the washed clots and FPA generation was determined. There was a time-dependent generation of FPA in plasma that was not caused by the release of FPA trapped within the washed clots, because the addition of buffer over the clots produced only a minimal amount of FPA (5.25 ± 0.35 nM at 60 min) (Fig. 8). The endogenous FPA level was 5.05 ± 0.31 nM in these studies.
The generation of FPA in plasma with or without JJ1 was quantified in accordance with the manufacturer’s instructions by using a commercially available ELISA kit (LSBio, Seattle, WA). Values were measured using an ELISA plate reader (Tecan, Austria GmbH, Austria).

human plasma = assay: In vitro PT clotting time; assay type: biochemical; details: at the maximum antithrombotic dose
Factor XIa = target: T4, Factor XIa (Homo sapiens, UniProt P03951); assay: Chromogenic substrate assay, Ki (Dixon); assay type: biochemical
T4 construct: Factor XIa
Description: (§1) Chromogenic substrate assays were performed using a Labsystems IEMS (Cergy Pontoise, France) microtiter plate reader. K i values were calculated according to the method of Dixon[65]. In each assay, the compound was tested at a minimum of seven concentrations, in duplicate, to obtain an inhibition curve. The following general procedures were adopted for each assay. In a 96-well microtiter plate, 25 μL of inhibitor solution or buffer was added to 50 μL of substrate. The enzyme solution (25 μL) was added just before the plate was placed in the microtiter plate reader for 1 h at 37 °C. The hydrolysis of the substrate yields p-nitroaniline, which was continuously monitored spectrophotometrically at 405 nm. The maximal initial reaction rates were calculated and expressed as millioptical density per minute.

Factor IXa = target: T5, Factor IXa (Homo sapiens, UniProt P00740); assay: Chromogenic substrate assay, Ki (Dixon); assay type: biochemical
T5 construct: Factor IXa
Description: as §1

T2 sequence (P04070 212-450 limits assumed): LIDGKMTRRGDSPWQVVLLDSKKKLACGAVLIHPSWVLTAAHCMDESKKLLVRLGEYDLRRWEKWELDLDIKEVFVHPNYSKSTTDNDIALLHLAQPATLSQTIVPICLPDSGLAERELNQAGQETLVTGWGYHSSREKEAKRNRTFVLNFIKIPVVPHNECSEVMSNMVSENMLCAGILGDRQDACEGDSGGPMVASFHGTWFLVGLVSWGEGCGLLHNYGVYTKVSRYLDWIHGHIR
T2 sequence (P04070 43-197 limits assumed): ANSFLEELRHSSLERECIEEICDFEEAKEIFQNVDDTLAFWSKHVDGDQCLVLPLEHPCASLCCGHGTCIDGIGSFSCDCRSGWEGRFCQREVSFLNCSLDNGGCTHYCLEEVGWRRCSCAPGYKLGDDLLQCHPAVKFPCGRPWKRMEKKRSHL
T5 sequence (P00740 227-461 limits assumed): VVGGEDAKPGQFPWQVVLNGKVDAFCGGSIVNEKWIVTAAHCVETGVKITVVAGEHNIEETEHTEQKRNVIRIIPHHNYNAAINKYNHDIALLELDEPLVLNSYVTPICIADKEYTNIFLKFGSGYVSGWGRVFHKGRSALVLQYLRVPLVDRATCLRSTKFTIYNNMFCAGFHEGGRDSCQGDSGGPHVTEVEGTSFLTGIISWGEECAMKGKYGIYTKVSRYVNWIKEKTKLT
T5 sequence (P00740 47-191 limits assumed): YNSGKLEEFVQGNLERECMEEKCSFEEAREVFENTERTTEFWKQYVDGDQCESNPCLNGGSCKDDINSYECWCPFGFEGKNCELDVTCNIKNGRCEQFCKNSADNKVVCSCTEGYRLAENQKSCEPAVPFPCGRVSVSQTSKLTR
T1 sequence (P00742 235-488 limits assumed): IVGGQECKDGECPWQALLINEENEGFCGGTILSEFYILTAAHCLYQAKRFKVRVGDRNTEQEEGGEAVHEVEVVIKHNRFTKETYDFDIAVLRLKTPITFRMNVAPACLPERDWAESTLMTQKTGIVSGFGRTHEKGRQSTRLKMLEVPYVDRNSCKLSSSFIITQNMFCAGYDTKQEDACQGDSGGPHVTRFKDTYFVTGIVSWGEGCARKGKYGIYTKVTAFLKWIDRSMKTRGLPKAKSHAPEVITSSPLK
T1 sequence (P00742 41-179 limits assumed): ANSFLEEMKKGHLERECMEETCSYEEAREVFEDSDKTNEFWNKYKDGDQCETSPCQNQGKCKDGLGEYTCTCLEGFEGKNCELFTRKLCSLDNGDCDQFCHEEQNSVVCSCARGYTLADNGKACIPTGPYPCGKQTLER
T4 sequence (P03951 388-625 limits assumed): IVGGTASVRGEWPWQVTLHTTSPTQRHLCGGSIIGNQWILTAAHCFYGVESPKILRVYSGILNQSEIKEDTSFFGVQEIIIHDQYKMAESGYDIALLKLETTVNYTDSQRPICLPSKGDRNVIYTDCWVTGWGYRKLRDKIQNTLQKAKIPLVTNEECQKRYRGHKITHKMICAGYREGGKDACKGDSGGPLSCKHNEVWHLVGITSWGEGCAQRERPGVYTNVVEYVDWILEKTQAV
T4 sequence (P03951 19-387 limits assumed): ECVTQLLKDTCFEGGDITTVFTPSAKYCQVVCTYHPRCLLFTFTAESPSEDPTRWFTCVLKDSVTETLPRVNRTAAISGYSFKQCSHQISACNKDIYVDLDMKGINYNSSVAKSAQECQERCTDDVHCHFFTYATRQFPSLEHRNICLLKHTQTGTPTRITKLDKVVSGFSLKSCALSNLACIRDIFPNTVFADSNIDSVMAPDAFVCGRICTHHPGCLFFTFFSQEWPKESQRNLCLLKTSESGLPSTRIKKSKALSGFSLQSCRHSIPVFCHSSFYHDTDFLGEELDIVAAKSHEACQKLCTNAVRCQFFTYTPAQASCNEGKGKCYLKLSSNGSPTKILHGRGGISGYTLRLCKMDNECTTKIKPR

SMILES: c1ccc2c(NC3CCCC3)nc(Nc3ccncc3)nc2c1 [JJ1]
- Ki (Factor Xa; Factor Xa): > 250 µM
- Selectivity ratio (Factor Xa; K i Factor Xa/K i α-thrombin): >10,000
- Human platelet aggregation induced by thrombin (human platelets): significantly inhibited human platelet aggregation induced by thrombin in a concentration-dependent manner
- AUC [1]: 6100 ng·h/mL
- half-life [1]: 3.1 h
- Selectivity ratio (Protein Ca; K i Protein Ca/K i α-thrombin): >10,000
- Ki (Protein Ca; Protein Ca): > 250 µM
- IC50 (clot-bound thrombin): 2.45 µM
- Prolongation of PT (human plasma): 2.22 fold
- Ki (Factor XIa; Factor XIa): > 250 µM
- Selectivity ratio (Factor XIa; K i Factor XIa/K i α-thrombin): >10,000
- Ki (Factor IXa; Factor IXa): > 250 µM
- Selectivity ratio (Factor IXa; K i Factor IXa/K i α-thrombin): >10,000
